# Source: ChEMBL document CHEMBL2417444, “Synthesis and study of 1-ethyl-3-carbohydrazide and 3-[1-oxo-2-hydrazino-3-{p-toluenesulfon}]quinolone derivatives against bacterial infections” (2013)
# Columns and labels:
# [1] = system: Salmonella typhi; test: Antibacterial activity against Salmonella typhi by disc diffusion method; assay type: functional, Salmonella enterica subsp. enterica serovar Typhi; settings: Salmonella enterica
# [2] = system: Pseudomonas aeruginosa; test: Antibacterial activity against Pseudomonas aeruginosa by disc diffusion method; assay type: functional
# [3] = system: Escherichia coli; test: Antibacterial activity against enterotoxigenic Escherichia coli by disc diffusion method; assay type: functional
# [4] = system: Staphylococcus aureus; test: Antibacterial activity against Staphylococcus aureus by disc diffusion method; assay type: functional
# [5] = system: Salmonella typhi; test: Ratio of norfloxacin MIC to compound MIC against Salmonella typhi; assay type: functional, Salmonella enterica subsp. enterica serovar Typhi
Structure (SMILES),MIC [1] [µg/mL],MIC [2] [µg/mL],MIC [3] [µg/mL],MIC [4] [µg/mL],Ratio [5]
CCn1cc(C(=O)NNS(=O)(=O)c2ccc(C)cc2)c(=O)c2ccccc21,0.0625,0.0625,0.125,0.0625,4
CCn1cc(C(=O)NNS(=O)(=O)c2ccc(C)cc2)c(=O)c2cc(F)ccc21,0.0625,0.0625,0.0625,0.0625,4
CCn1cc(C(=O)NNS(=O)(=O)c2ccc(C)cc2)c(=O)c2cc(Cl)ccc21,0.0625,0.0625,0.0625,0.0625,4
CCn1cc(C(=O)NNS(=O)(=O)c2ccc(C)cc2)c(=O)c2ccc(Cl)cc21,0.125,0.0625,0.0625,0.0625,2
CCn1cc(C(=O)NNS(=O)(=O)c2ccc(C)cc2)c(=O)c2cc(F)c(Cl)cc21,0.0625,0.0625,0.0625,0.0625,4
CCn1cc(C(=O)NN)c(=O)c2ccccc21,0.0625,0.0625,0.0625,0.0625,4
CCn1cc(C(=O)NN)c(=O)c2cc(F)ccc21,0.0625,0.0625,0.125,0.0625,4
CCn1cc(C(=O)NN)c(=O)c2cc(Cl)ccc21,0.0625,0.0625,0.25,0.0625,4
CCn1cc(C(=O)NN)c(=O)c2ccc(Cl)cc21,0.0625,0.0625,0.0625,0.0625,4
CCn1cc(C(=O)NN)c(=O)c2cc(F)c(Cl)cc21,0.0625,0.0625,0.0625,0.0625,4
O=C(O)c1cn(C2CC2)c2cc(N3CCNCC3)c(F)cc2c1=O [CIPROFLOXACIN],0.0625,0.0625,0.0625,0.0625,
CCn1cc(C(=O)O)c(=O)c2cc(F)c(N3CCNCC3)cc21 [NORFLOXACIN],0.25,0.0625,0.0625,0.0625,
